Experimental data: patent US8673906B2, “Chromenone derivatives” (AstraZeneca AB, priority 2010, dated 2014)
Like-named read-outs stand apart in the source and are kept apart here. Each block holds one compound with its values, some of them ahead of it.

Assays:
[1] = test system: phospho AKT (ser473) in MAD-MB-468 cells; assay: Detection of phospho AKT (ser473) in MAD-MB-468 cells; type: cell-based, human; conditions: Test (b)
Description: (b) Protocol for Detection of Phospho AKT (Ser473) in MAD-MB-468 Cells
MDA-MB-468 cells (human breast adenocarcinoma ATCC HTB 132) are seeded into Greiner 384 well black flat-bottomed plates by automated cell culture robot (Selec T). Cells can also be maintained manually and seeded into plates using multidrop or Wellmate. Cells seeded at 1500 cell/well in 40 μl of DMEN containing 10% FCS and 1% glutamine. Cell plates are incubated for 18 hours in a 37° C. incubator.
Compounds are dosed onto cells using an Echo acoustic dispenser, which dispenses nl quantities of compound or DMSO. Compounds are dosed in a 12 point concentration range from 30 μM top dose, 28 compounds are dosed on one plate. There are 17 DMSO only positive control wells per plate, and 16 negative control well which have been dosed with a concentration of reference compound that will knockout the pAKT signal.
Plates are incubated at 37° C. for 2 hours, cells are the fixed by the addition of 10 μl of a 3.7% Formaldehyde solution in a fume cupboard using a Wellmate.
After 30 minutes to allow for fixation, the fixative and media are removed and the plates washed with Proclin PBS/A using Tecan PW384 plate washer in a fume cupboard. Wells are blocked and permeabilised with the addition of 40 μl of PBS containing 0.5% Tween20 and 1% marvel using a Wellmate and incubated for 60 minutes at room temperature.
Permeabilisation and blocking buffer removed using Tecan PW384 plate washer, then 20 μl primary antibody solution added using a Wellmate. The primary antibody solution is a 1:500 dilution of Rabbit anti-phospho AKT Ser 473 (Cell signalling technologies catalogue number #3787) in PBS/T containing 1% marvel (dried milk powder) and incubated overnight at 4° C.
Plates are washed using a Tecan PW384 plate washer three times with Phosphate Buffered Saline+0.05% (v/v) Polysorbate20 and Proclin300 (Supelco). 20 μl of secondary antibody solution is then added to each well using a Wellmate and incubated for 1 hour at Room Temp. The secondary antibody solution is a 1:1000 dilution of Alexa Fluor 488 anti-Rabbit (Molecular Probes cat no A11008) diluted in Phosphate Buffered Saline+0.05% (v/v) Polysorbate20 containing 1% marvel. Plates are washed three times as before then 20 μl PBS added to each well and plates sealed with black plate sealer.
The plates are read on an Acumen reader as soon as possible. Using this system IC50 values can be generated and quality of plates determined by control wells. Reference compounds are run each time to monitor assay performance.

[2] = molecular target: PI3Kβ (Homo sapiens (Human), UniProt P42338); assay: In vitro enzyme inhibition assay (Kinase Glo based enzyme activity assay); type: biochemical; conditions: Test (a)
How it was run: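 ATP depletion by recombinant human PI3Kβ measured with Kinase-Glo luminescence after an 80 min reaction (final 80 μM ATP, 80 μM PIP2, 1% DMSO) in Tris pH 7.4 buffer with CHAPS, DTT and MgCl2, following 20 min enzyme–compound preincubation. Twelve concentrations fitted by non-linear regression for IC50.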

[3] = Homo sapiens, approximate value, read-out: IC50 versus cellular phospho AKT (ser473) in MAD-MB-468 cells
[4] = approximate value, read-out: IC50 versus PI3Kβ
[5] = human recombinant enzyme, read-out: PI3Kβ inhibition, IC50
[6] = Homo sapiens, mean IC50 value calculated from a larger number of replicates, read-out: IC50 versus cellular phospho AKT (ser473) in MAD-MB-468 cells (value in brackets)
[7] = approximate value, read-out: IC50 versus cellular phospho AKT (ser473) in MAD-MB-468 cells

Chain of PI3Kβ (P42338 whole entry): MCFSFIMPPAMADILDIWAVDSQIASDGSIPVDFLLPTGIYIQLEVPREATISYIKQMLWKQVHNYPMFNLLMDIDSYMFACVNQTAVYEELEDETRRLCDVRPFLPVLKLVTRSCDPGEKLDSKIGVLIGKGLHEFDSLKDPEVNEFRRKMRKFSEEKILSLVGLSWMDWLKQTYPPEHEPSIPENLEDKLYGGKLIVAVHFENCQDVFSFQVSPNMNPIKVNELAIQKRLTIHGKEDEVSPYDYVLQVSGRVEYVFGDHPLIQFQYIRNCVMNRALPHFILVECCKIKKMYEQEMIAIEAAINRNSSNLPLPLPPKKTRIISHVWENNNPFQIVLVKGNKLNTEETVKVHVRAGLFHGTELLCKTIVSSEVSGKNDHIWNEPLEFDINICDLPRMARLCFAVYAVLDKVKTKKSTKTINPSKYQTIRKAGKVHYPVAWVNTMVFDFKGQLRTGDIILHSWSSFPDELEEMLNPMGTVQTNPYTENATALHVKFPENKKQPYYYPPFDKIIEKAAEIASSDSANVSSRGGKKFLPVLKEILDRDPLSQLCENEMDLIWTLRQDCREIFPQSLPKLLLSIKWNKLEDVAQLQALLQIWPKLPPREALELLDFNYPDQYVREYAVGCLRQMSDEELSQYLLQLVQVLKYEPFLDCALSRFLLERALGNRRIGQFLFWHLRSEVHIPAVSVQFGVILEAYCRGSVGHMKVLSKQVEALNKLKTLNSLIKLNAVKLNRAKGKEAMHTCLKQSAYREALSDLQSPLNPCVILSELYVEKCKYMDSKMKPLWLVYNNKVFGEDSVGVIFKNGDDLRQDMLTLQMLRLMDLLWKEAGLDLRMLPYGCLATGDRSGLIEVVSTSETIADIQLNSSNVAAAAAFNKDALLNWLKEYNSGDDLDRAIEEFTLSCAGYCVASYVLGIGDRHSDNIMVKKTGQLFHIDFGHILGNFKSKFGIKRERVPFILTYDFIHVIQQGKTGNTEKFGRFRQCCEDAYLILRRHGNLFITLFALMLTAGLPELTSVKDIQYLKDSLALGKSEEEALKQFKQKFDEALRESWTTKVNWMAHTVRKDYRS
Chain of PI3Kβ (P27986 whole entry partner): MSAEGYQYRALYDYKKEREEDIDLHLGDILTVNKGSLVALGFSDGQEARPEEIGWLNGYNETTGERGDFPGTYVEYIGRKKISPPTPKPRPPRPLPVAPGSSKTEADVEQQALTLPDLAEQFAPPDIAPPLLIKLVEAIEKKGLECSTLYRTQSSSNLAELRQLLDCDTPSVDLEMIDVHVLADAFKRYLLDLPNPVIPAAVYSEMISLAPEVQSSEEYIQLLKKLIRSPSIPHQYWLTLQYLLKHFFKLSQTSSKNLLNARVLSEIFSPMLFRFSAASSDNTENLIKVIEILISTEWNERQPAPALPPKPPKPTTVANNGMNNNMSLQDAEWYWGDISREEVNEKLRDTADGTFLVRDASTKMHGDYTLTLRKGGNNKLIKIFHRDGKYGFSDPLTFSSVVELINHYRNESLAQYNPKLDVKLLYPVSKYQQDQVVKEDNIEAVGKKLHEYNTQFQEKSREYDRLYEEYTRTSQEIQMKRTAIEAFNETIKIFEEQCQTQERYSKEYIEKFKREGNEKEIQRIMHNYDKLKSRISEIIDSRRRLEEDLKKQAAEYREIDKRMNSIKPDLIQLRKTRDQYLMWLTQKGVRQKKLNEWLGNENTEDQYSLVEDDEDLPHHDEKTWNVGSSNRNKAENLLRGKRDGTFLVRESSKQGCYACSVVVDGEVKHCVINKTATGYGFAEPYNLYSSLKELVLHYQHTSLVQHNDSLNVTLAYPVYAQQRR

IC50 [1, 3]: ~27 nM
SMILES: CC(Nc1cc(F)c(F)c(F)c1)c1cc(C(=O)N(C)C)cc2c(=O)cc(N3CCOCC3)oc12 (stereo not shown) [Example 3.11, N,N-dimethyl-2-morpholino-4-oxo-8-(1-(3,4,5-trifluorophenylamino)ethyl)-4H-chromene-6-carboxamide]

IC50 [1, 3]: ~9 nM
SMILES: CC(Nc1cc(F)cc(F)c1)c1cc(C(=O)N(C)C)cc2c(=O)cc(N3CCOCC3)oc12 (racemic) [Example 3.06, 8-(1-(3,5-difluorophenylamino)ethyl)-N,N-dimethyl-2-morpholino-4-oxo-4H-chromene-6-carboxamide]

IC50 [1, 3]: ~35 nM | IC50 [1, 6]: ~37 nM | IC50 [2, 4]: ~9 nM | IC50 [2, 5]: 9 nM
SMILES: CC(Nc1ccc(F)c(F)c1)c1cc(C(=O)N(C)C)cc2c(=O)cc(N3CCOCC3)oc12 (racemic) [Example 3.03, 8-(1-(3,4-difluorophenylamino)ethyl)-N,N-dimethyl-2-morpholino-4-oxo-4H-chromene-6-carboxamide]

IC50 [1, 3]: ~1 nM | IC50 [1, 6]: ~2 nM | IC50 [2, 4]: ~4 nM | IC50 [2, 5]: 4 nM
SMILES: CC(Nc1cc(F)cc(F)c1)c1cc(C(=O)N2CCCC2)cc2c(=O)cc(N3CCOCC3)oc12 (stereo not shown) [Example 4.02, 8-(1-(3,5-difluorophenylamino)ethyl)-2-morpholino-6-(pyrrolidine-1-carbonyl)-4H-chromen-4-one]

IC50 [1, 3]: ~12 nM | IC50 [2, 4]: ~11 nM | IC50 [2, 5]: 11 nM
SMILES: CC(Nc1cccc(Cl)c1F)c1cc(C(=O)N(C)C)cc2c(=O)cc(N3CCOCC3)oc12 (racemic) [Example 3.04, 8-(1-(3-chloro-2-fluorophenylamino)ethyl)-N,N-dimethyl-2-morpholino-4-oxo-4H-chromene-6-carboxamide]

Further lines, the compound ahead of its results:

SMILES: CC(Nc1cc(F)cc(F)c1F)c1cc(C(=O)N(C)C)cc2c(=O)cc(N3CCOCC3)oc12 (single isomer, unassigned) [Example 3.13a, N,N-dimethyl-2-morpholino-4-oxo-8-(1-(2,3,5-trifluorophenylamino)ethyl)-4H-chromene-6-carboxamide]
IC50 [1, 3]: ~4300 nM | IC50 [2, 4]: ~4500 nM | IC50 [2, 5]: 4540 nM

SMILES: CC(Nc1cc(F)cc(F)c1)c1cc(C(=O)N(C)C)cc2c(=O)cc(N3CCOCC3)oc12 (single isomer, unassigned; (-)) [Example 3.06b, (−)-8-(1-(3,5-difluorophenylamino)ethyl)-N,N-dimethyl-2-morpholino-4-oxo-4H-chromene-6-carboxamide]
IC50 [1, 6]: ~3 nM | IC50 [1, 7]: ~5 nM

SMILES: CC(Nc1cc(F)cc(F)c1)c1cc(C(=O)N(C)C)cc2c(=O)cc(N3CCOCC3)oc12 (single isomer, unassigned) [Example 3.06a, 8-(1-(3,5-difluorophenylamino)ethyl)-N,N-dimethyl-2-morpholino-4-oxo-4H-chromene-6-carboxamide]
IC50 [1, 7]: ~13500 nM

SMILES: CC(c1cc(C(=O)N(C)C)cc2c(=O)cc(N3CCOCC3)oc12)N(C)c1ccc(F)cc1 (stereo not shown) [Example 3.07, 8-(1-((4-fluorophenyl)(methyl)amino)ethyl)-N,N-dimethyl-2-morpholino-4-oxo-4H-chromene-6-carboxamide]
IC50 [1, 3]: ~580 nM | IC50 [2, 4]: ~29 nM

SMILES: CC(Nc1cccc(Cl)c1F)c1cc(C(=O)N(C)CCO)cc2c(=O)cc(N3CCOCC3)oc12 (stereo not shown) [Example 2.05, 8-(1-(3-chloro-2-fluorophenylamino)ethyl)-N-(2-hydroxyethyl)-N-methyl-2-morpholino-4-oxo-4H-chromene-6-carboxamide]
IC50 [1, 3]: ~17 nM | IC50 [2, 4]: ~5 nM | IC50 [2, 5]: 5 nM

SMILES: CC(c1cc(C(=O)N(C)C)cc2c(=O)cc(N3CCOCC3)oc12)N(C)c1cc(F)cc(F)c1 (single isomer, unassigned) [Example 5.0a, 8-(1-((3,5-difluorophenyl)(methyl)amino)ethyl)-N,N-dimethyl-2-morpholino-4-oxo-4H-chromene-6-carboxamide]
IC50 [1, 3]: ~15 nM

SMILES: CC(Nc1ccc(F)cc1)c1cc(C(=O)NCCN(C)C)cc2c(=O)cc(N3CCOCC3)oc12 (stereo not shown) [Example 1.00, N-(2-(dimethylamino)ethyl)-8-(1-(4-fluorophenylamino)ethyl)-2-morpholino-4-oxo-4H-chromene-6-carboxamide]
IC50 [1, 3]: ~9 nM | IC50 [2, 4]: ~2 nM | IC50 [2, 5]: 2 nM
